Among the test systems are OVCAR-3; T47D; SF-268; A498; U-251; HCT-15; SR; SK-MEL-5; COLO 205; HL-60; SK-OV-3; NCI-H226; SW-620; OVCAR-4; NCI-H460; HT-29; TK-10; NCI/ADR-RES; HOP-92.
Common to all, as to test: NCI anticancer screen, dose series, 48 h

The source of these data is ChEMBL document CHEMBL1201862, “PubChem BioAssay data set” (2004).

Structures are written as SMILES.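 Step 1: Grow cells in 96-well plates. Step 2: Expose to compound for 48 hours at 5 concentrations. Step 3: Interpolate endpoints linearly; if unreached, use highest concentration. GI50 = concentration required for 50% inhibition of growth.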 The source made the active and inactive calls. Cut-off read from the data, not from the text of the source: active = GI50 up to about 1.1 µM and inactive = higher.

With `O=C1O/C(=C(\Br)c2ccc([N+](=O)[O-])cc2)c2ccccc21`, the GI50 in the experiment with OVCAR-3 is > 88.5 µM (inactive); with T47D it was 86.5 µM (inactive); in the experiment on SF-268, > 74 µM (inactive); in the experiment on A498, > 100 µM (inactive); in the experiment on U-251 it was 73.3 µM (inactive); with HCT-15, > 50.9 µM. Further, the GI50 in the experiment with SR was 28.8 µM (inactive); in the experiment on SK-MEL-5 it was > 75.7 µM (inactive); in the experiment on COLO 205, > 100 µM (inactive); in the experiment on HL-60, 36.1 µM (inactive); in the experiment with SK-OV-3 it was > 100 µM (inactive); with NCI-H226, > 100 µM (inactive). Moreover, the GI50 in the experiment with SW-620 was > 64.3 µM (inactive); in the experiment on OVCAR-4, > 100 µM (inactive); in the experiment with NCI-H460, > 100 µM (inactive); with HT-29, 41.1 µM (inactive); with TK-10, > 100 µM (inactive); with NCI/ADR-RES, > 100 µM (inactive). Besides, in the experiment with HOP-92, the GI50 was > 100 µM (inactive).

With `CC1(C)C(=O)N=C(N)N1C(=O)OCc1ccccc1`, the GI50 is > 100 µM (inactive) in the experiment on OVCAR-3; > 100 µM (inactive) in the experiment on T47D; > 100 µM (inactive) in the experiment with SF-268; > 100 µM (inactive) in the experiment on A498; > 100 µM (inactive) with U-251; > 100 µM with HCT-15. Besides, the GI50 in the experiment with SR, with SK-MEL-5, in the experiment with COLO 205, in the experiment on HL-60, in the experiment on SK-OV-3 and in the experiment with NCI-H226 was > 100 µM (inactive) each time. For the same compound, the GI50 in the experiment on SW-620, with OVCAR-4, in the experiment with NCI-H460, with HT-29, in the experiment with TK-10 and with NCI/ADR-RES was > 100 µM (inactive) throughout. Besides, the GI50 in the experiment on HOP-92 is > 100 µM (inactive).

Regarding `O=[N+]([O-])c1ccc(NN/N=N/c2ccc(-c3nc4ccccc4[nH]3)cc2)c([N+](=O)[O-])c1`, the GI50 was 28.4 µM (inactive) in the experiment with OVCAR-3; 30.1 µM (inactive) in the experiment on T47D; 26.1 µM (inactive) in the experiment on SF-268; 25.6 µM (inactive) with A498; 53.7 µM (inactive) with U-251; 19.7 µM with HCT-15. Moreover, the GI50 with SR was 2.74 µM (inactive); with SK-MEL-5, 10.4 µM (inactive); in the experiment with COLO 205 it was 27.7 µM (inactive); in the experiment on HL-60 it was 13.8 µM (inactive); in the experiment with SK-OV-3, 94.6 µM (inactive); in the experiment with NCI-H226 it was 43.2 µM (inactive). The GI50 in the experiment with SW-620 was 68.5 µM (inactive); in the experiment on OVCAR-4, 28.6 µM (inactive); in the experiment with NCI-H460, 9.44 µM (inactive); with HT-29, 36.5 µM (inactive); in the experiment with TK-10, > 100 µM (inactive); in the experiment with NCI/ADR-RES, 45.7 µM (inactive). Also, in the experiment with HOP-92, the GI50 is 43.8 µM (inactive).

`C=CCC(C(=O)O)c1ccccc1` (stereo not given): the GI50 with OVCAR-3 is > 100 µM (inactive); in the experiment on T47D, > 100 µM (inactive); with SF-268, > 100 µM (inactive); in the experiment on A498 it was > 100 µM (inactive); in the experiment with U-251, > 100 µM (inactive); in the experiment on HCT-15, > 100 µM. Further, the GI50 in the experiment with SR, in the experiment on SK-MEL-5, in the experiment on COLO 205, with HL-60, in the experiment with SK-OV-3 and in the experiment on NCI-H226 was > 100 µM (inactive) each time. In addition, the GI50 in the experiment on SW-620, in the experiment on OVCAR-4, in the experiment with NCI-H460, in the experiment on HT-29, in the experiment on TK-10 and with NCI/ADR-RES was > 100 µM (inactive) each time. The GI50 in the experiment on HOP-92 is > 100 µM (inactive).

Consider `CCc1nc(N)nc(N)c1-c1ccc(N2CCOCC2)c(N=[N+]=[N-])c1`, for which the GI50 was 77.6 µM (inactive) in the experiment with OVCAR-3; > 92.7 µM (inactive) in the experiment with T47D; 44.7 µM (inactive) in the experiment with SF-268; > 92 µM (inactive) in the experiment with A498; 67 µM (inactive) with U-251; 20.3 µM in the experiment on HCT-15. For the same compound, the GI50 in the experiment with SR was 36.9 µM (inactive); in the experiment on SK-MEL-5 it was 37.2 µM (inactive); with COLO 205 it was 79.6 µM (inactive); in the experiment on HL-60 it was > 28.2 µM (inactive); in the experiment on SK-OV-3 it was > 100 µM (inactive); with NCI-H226, 98.2 µM (inactive). Also, the GI50 was 41.9 µM (inactive) with SW-620; 70.6 µM (inactive) with OVCAR-4; 8.85 µM (inactive) in the experiment with NCI-H460; 31.8 µM (inactive) with HT-29; > 100 µM (inactive) with TK-10; > 100 µM (inactive) with NCI/ADR-RES. Also, the GI50 in the experiment with HOP-92 was 78.3 µM (inactive).

For `O=C1/C(=C\c2ccccc2)C(NC2CCCCC2)c2ccccc21` (stereo not given), the GI50 in the experiment on OVCAR-3 is 1.24 µM (inactive); in the experiment with T47D, 1.73 µM (inactive); with SF-268, 3.46 µM (inactive); with A498 it was 18.6 µM (inactive); in the experiment on U-251, 1.73 µM (inactive); with HCT-15 it was 2.15 µM. Moreover, the GI50 was 0.206 µM (active) in the experiment with SR; 2.37 µM (inactive) with SK-MEL-5; 1.55 µM (inactive) with COLO 205; 0.883 µM (active) in the experiment on HL-60; 14 µM (inactive) with SK-OV-3; 6.24 µM (inactive) in the experiment with NCI-H226. Also, the GI50 is 0.444 µM (active) with SW-620; 1.79 µM (inactive) in the experiment on OVCAR-4; 2.71 µM (inactive) in the experiment on NCI-H460; 1.42 µM (inactive) in the experiment with HT-29; 1.29 µM (inactive) in the experiment with TK-10; 3.65 µM (inactive) in the experiment on NCI/ADR-RES. Besides, in the experiment with HOP-92, the GI50 is 1.96 µM (inactive).

In the case of `COc1ccc(S(=O)(=O)Nc2ccc(-c3csc(N4C(=O)/C(=C/c5ccccc5)N=C4c4ccccc4)n3)cc2)cc1Cl`, the GI50 with OVCAR-3 was 36.2 µM (inactive); with T47D, 17.9 µM (inactive); in the experiment with SF-268, 31.4 µM (inactive); in the experiment with A498, 11.3 µM (inactive); with U-251, 23.7 µM (inactive); in the experiment with HCT-15, 20.2 µM. The GI50 with SR was 28.1 µM (inactive); with SK-MEL-5 it was 28.4 µM (inactive); in the experiment with COLO 205, 34.5 µM (inactive); in the experiment on HL-60 it was 24.6 µM (inactive); in the experiment on SK-OV-3, 79.3 µM (inactive); in the experiment on NCI-H226, 33.2 µM (inactive). Also, the GI50 in the experiment on SW-620 was 43.7 µM (inactive); in the experiment on OVCAR-4, 27.2 µM (inactive); in the experiment on NCI-H460 it was 31.3 µM (inactive); in the experiment on HT-29, > 100 µM (inactive); in the experiment on TK-10 it was 47.4 µM (inactive); in the experiment with NCI/ADR-RES, 45.4 µM (inactive). Also, in the experiment on HOP-92, the GI50 was 24.4 µM (inactive).

`CN1CCN(CCCCNc2cc3c4ccccc4c(NCCCCN4CCN(C)CC4)cc3c3ccccc23)CC1`: the GI50 is 2.98 µM (inactive) in the experiment with OVCAR-3; 18.6 µM (inactive) with T47D; 1.9 µM (inactive) in the experiment on SF-268; 12 µM (inactive) with A498; 1.68 µM (inactive) in the experiment on U-251; 1.34 µM in the experiment with HCT-15. For the same compound, the GI50 is 0.443 µM (active) with SR; 1.44 µM (inactive) with SK-MEL-5; 2.36 µM (inactive) in the experiment with COLO 205; 4.03 µM (inactive) in the experiment on HL-60; 14.6 µM (inactive) in the experiment on SK-OV-3; 13.4 µM (inactive) with NCI-H226. In addition, the GI50 was 1.43 µM (inactive) in the experiment on SW-620; 1.36 µM (inactive) in the experiment on OVCAR-4; 1.53 µM (inactive) in the experiment on NCI-H460; 1.95 µM (inactive) in the experiment with HT-29; 6.95 µM (inactive) with TK-10; 2.47 µM (inactive) with NCI/ADR-RES. Moreover, the GI50 with HOP-92 is 6.61 µM (inactive).

As for `COc1cc2c3c(c4cc(OC)c(OC)cc4c2cc1OC)[C@H](O)[C@@H]1CCCN1C3`, the GI50 in the experiment with OVCAR-3 was 0.0384 µM (active); with T47D it was 0.0269 µM (active); in the experiment with SF-268, < 0.0408 µM (active); in the experiment on A498 it was < 0.0208 µM (active); in the experiment on U-251, < 0.0245 µM (active); with HCT-15 it was < 0.0239 µM. For the same compound, the GI50 in the experiment on SR was 0.029 µM (active); with SK-MEL-5, < 0.0259 µM (active); with COLO 205, < 0.0179 µM (active); in the experiment with HL-60, < 0.0357 µM (active); in the experiment on SK-OV-3, < 0.0237 µM (active); with NCI-H226, 0.0494 µM (active). The GI50 is < 0.0269 µM (active) in the experiment with SW-620; < 0.0234 µM (active) in the experiment on OVCAR-4; < 0.0226 µM (active) with NCI-H460; < 0.0191 µM (active) in the experiment with HT-29; 0.0562 µM (active) with TK-10; < 0.0372 µM (active) with NCI/ADR-RES. Besides, the GI50 in the experiment on HOP-92 was < 0.0478 µM (active).

Turning to `O=C1CC(c2ccc([N+](=O)[O-])cc2)C2(C(=O)NC(=S)NC2=O)C(c2ccc([N+](=O)[O-])cc2)C1` (stereo not given), the GI50 with OVCAR-3 was 32 µM (inactive); with T47D it was 51.3 µM (inactive); in the experiment with SF-268 it was 21.4 µM (inactive); with A498 it was 32.4 µM (inactive); in the experiment on U-251, 18.7 µM (inactive); in the experiment with HCT-15 it was 18.9 µM. Further, the GI50 in the experiment on SR was 52.2 µM (inactive); with SK-MEL-5 it was 31.3 µM (inactive); in the experiment on COLO 205, 33.5 µM (inactive); in the experiment with HL-60, 51.6 µM (inactive); in the experiment with SK-OV-3 it was 35.9 µM (inactive); in the experiment with NCI-H226 it was 15.7 µM (inactive). Moreover, the GI50 is 29.7 µM (inactive) with SW-620; 45.7 µM (inactive) in the experiment with OVCAR-4; 21.8 µM (inactive) in the experiment on NCI-H460; 59.8 µM (inactive) in the experiment on HT-29; 16.3 µM (inactive) in the experiment with TK-10; 31.6 µM (inactive) in the experiment with NCI/ADR-RES. Also, the GI50 in the experiment on HOP-92 was 26.9 µM (inactive).
